Here are results for four compounds from US20070207121A1, “Methods of Using and Compositions Comprising Selective Cytokine Inhibitory Drugs for Treatment and Management of Macular Degeneration” (priority 2003, published 2007).

Series [1] has as its system patients with macular degeneration. Description: Clinical study in patients with macular degeneration, adjuvant to photodynamic therapy with verteporfin. It is filed as in vivo, human. The conditions noted are these: about 20 mg/day as adjuvant for 20 weeks with verteporfin photodynamic therapy. As to the method:
Selective cytokine inhibitory drugs of the invention are administered in an amount of about 20 to about 1,200 mg per day to patients with macular degeneration. In a specific embodiment, clinical studies are performed with forty patients with macular degeneration, who are divided into two groups. The first group receives conventional treatment for closing the leaking choroidal vessels (characteristic of this disease) by photodynamic therapy with verteporfin. Opthalmol 1999 (117): 1329-1345. The second group receives the same conventional therapy with verteporfin and (+)-2-[1-(3-ethoxy-4 methoxyphenyl)-2-methylsulfonylethyl]-4 acetylaminoisoindoline 1,3-dione in an amount of about 20 mg/day as an adjuvant for 20 weeks.
However, the first group without (+)-2-[1-(3-ethoxy-4 methoxyphenyl)-2-methylsulfonylethyl]-4-acetylaminoisoindoline 1,3-dione experiences progressive reperfusion of the ablated vessels several weeks after treatment. Progressive visual loss follows which requires the photodynamic therapy to be repeated.

The subject of a further series is TNF-α production. The experiment in a line: Inhibition of TNF-α production following LPS-stimulation of human PBMC and human whole blood (in vitro pharmacology studies). Type of series: cell-based. The conditions noted are these: more potent than thalidomide. From the text: One of the biological effects typically exerted by selective cytokine inhibitory drugs is the reduction of synthesis of TNF-α Specific selective cytokine inhibitory drugs enhance the degradation of TNF-αmRNA. TNF-α may play a pathological role in macular degeneration.
In a specific embodiment, the pharmacological properties of 3-(3,4-dimethoxy-phenyl)-3-(1-oxo-1,3-dihydro-isoindol-2-yl)-propionamide are characterized in in vitro studies. Studies examine the effects of the compound on the production of various cytokines. Inhibition of TNF-α production following LPS-stimulation of human PBMC and human whole blood by the compound is investigated in vitro. […] The pharmacological effects of 3-(3,4-dimethoxy-phenyl)-3-(1-oxo-1,3-dihydro-isoindol-2-yl)-propionamide may derive from its action as an inhibitor of the generation of inflammatory cytokines.

For another series, the system named is laser-induced CNVM. To be noted: intravitreal injection, monkeys; cited from earlier work.
Another series has as its system patients with MD. To be noted: intravitreal injection, over a one-year period; cited from earlier work.
The subject of a further series is MD. To be noted: cited from earlier work.

With `CCOc1cc(C(CS(C)(=O)=O)N2C(=O)c3cccc(NC(C)=O)c3C2=O)ccc1OC` (single isomer, unassigned; (+)) [(+)-2-[1-(3-ethoxy-4 methoxyphenyl)-2-methylsulfonylethyl]-4 acetylaminoisoindoline 1,3-dione], in series [1], the “effects of the photodynamic therapy” value is listed as “indefinitely prolong” and the neovascular cascade entry is “sufficiently hindered”.

`COc1ccc(C(CC(N)=O)N2Cc3ccccc3C2=O)cc1OC` (stereo not shown) [3-(3,4-dimethoxy-phenyl)-3-(1-oxo-1,3-dihydro-isoindol-2-yl)-propionamide]: the “pharmacological activity profile, potency relative to thalidomide” value in the series on TNF-α production is listed as “five to fifty”.

Regarding `C[C@]12C=CC(=O)C=C1CC[C@H]1[C@@H]3C[C@@H](O)[C@](O)(C(=O)CO)[C@@]3(C)C[C@H](O)[C@@]12F` [triamcinolone], in the series on laser-induced CNVM, the “growth of laser-induced CNVM” value is on record as “inhibits”. For the same compound, the “prevention of severe visual loss” value with patients with MD was “fails to prevent severe visual loss”.

With interferon-α, the “efficacy at treating MD” value in the series with MD (clinical trial) is given as “ineffective”. For the same compound, in the series with MD (in vivo), the adverse effects result is listed as “high rate of adverse effects”.
